Measured values reported in ChEMBL document CHEMBL1201862, “PubChem BioAssay data set” (2004).
Calls of active or inactive are those of the source.

Columns and labels:
[1] = target: Cytochrome P450 2C19 (Homo sapiens, UniProt P33261); experiment: Cytochrome panel assay with activity outcomes. Panel member name: p450-cyp2c19 Compounds with AC50 equal or less than 10 uM are considered active; format: functional; details: read-out: AC50
[2] = target: Cytochrome P450 3A4 (Homo sapiens, UniProt P08684);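 also: CYP3A4 tested as one member of a cytochrome P450 panel screen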
Sequence of Cytochrome P450 3A4 (P08684 whole entry): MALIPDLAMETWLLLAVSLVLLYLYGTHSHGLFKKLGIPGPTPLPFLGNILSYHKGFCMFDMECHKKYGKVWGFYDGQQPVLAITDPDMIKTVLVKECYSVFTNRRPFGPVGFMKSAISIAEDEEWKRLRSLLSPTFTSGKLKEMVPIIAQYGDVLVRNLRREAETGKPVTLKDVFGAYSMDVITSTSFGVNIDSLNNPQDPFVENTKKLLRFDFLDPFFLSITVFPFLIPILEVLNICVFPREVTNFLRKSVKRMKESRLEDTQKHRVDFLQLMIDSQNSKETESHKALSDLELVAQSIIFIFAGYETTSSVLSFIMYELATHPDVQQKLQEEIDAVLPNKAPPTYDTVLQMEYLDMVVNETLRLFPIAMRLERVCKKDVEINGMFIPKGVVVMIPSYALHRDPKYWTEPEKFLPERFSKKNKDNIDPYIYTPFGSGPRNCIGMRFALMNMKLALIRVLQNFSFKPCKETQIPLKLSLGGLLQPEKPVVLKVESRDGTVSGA

[3] = target: Cytochrome P450 2C9 (Homo sapiens, UniProt P11712)
Sequence of Cytochrome P450 2C9 (P11712 whole entry): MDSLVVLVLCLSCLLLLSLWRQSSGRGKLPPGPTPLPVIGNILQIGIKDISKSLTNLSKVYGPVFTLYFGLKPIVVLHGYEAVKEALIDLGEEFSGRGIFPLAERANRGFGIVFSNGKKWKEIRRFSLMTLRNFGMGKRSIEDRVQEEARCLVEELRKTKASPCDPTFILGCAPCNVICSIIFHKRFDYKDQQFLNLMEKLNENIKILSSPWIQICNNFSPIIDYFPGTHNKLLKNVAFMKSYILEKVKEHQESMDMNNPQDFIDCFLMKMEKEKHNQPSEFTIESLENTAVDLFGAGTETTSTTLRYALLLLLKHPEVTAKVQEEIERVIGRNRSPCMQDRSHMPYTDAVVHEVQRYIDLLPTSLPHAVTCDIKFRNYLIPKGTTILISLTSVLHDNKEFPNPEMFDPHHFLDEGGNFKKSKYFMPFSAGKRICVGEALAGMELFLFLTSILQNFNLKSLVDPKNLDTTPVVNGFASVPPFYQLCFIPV

[4] = target: T1, Corticotropin-releasing factor receptor 2/Corticotropin-releasing factor-binding protein (Homo sapiens, UniProt P24387+Q13324); experiment: activators of CRF receptor 2 with binding protein – uHTS hits, confirmation (AID 602473); format: functional; details: read-out: EC50_Mean
T1 sequence (Q13324 whole entry): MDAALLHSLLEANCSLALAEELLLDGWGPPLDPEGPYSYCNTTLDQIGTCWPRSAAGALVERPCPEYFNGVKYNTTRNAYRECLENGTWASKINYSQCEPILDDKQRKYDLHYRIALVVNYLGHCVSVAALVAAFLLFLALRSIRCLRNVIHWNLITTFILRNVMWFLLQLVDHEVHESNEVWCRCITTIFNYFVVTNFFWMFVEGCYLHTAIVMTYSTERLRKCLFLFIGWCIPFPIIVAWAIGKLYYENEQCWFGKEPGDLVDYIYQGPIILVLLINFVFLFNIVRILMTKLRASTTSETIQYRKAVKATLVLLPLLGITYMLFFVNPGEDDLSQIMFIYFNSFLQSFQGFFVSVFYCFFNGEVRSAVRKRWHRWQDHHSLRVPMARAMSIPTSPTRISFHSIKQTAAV
T1 sequence (P24387 whole entry): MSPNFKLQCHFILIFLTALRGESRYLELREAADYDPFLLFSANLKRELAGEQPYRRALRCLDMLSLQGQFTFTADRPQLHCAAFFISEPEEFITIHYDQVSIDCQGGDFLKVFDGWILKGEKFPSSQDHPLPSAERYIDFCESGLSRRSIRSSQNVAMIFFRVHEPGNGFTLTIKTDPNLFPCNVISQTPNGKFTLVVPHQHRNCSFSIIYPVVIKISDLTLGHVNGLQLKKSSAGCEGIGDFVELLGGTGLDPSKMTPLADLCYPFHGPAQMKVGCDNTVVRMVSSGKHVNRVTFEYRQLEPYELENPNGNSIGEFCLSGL

[5] = system: INS1; experiment: beta cell apoptosis inhibitors, cytokine rescue, dose response, luminescence, retest (AID 449756); format: functional, cell-based; details: Rattus norvegicus;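 also: cell death triggered by IL-1 beta plus TNF-alpha plus IFN-gamma mixture; protective hits raise ATP signal compared with cytokine alone wells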
[6] = Luminescence Cell-Based Dose Response HTS to Identify Activators of Luciferase Translation or Activity in H4 […] Cells. [Related pubchem assays: 1829 (Project Summary), 1814 (Primary HTS)]; format: functional
[7] = system: H4; experiment: Luminescence Cell-Based Dose Response HTS to Identify Activators of 5'UTR Stem-Loop Driven Prion Protein mRNA Translation in H4 Neuroglioblastoma Cells. [Related pubchem assays: 1829 (Project Summary), 1814 (Primary HTS)]; format: functional; details: Homo sapiens
[8] = target: Cytochrome P450 2D6 (Homo sapiens, UniProt P10635);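 also: CYP2D6 member of a cytochrome P450 panel assay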
Sequence of Cytochrome P450 2D6 (P10635 whole entry): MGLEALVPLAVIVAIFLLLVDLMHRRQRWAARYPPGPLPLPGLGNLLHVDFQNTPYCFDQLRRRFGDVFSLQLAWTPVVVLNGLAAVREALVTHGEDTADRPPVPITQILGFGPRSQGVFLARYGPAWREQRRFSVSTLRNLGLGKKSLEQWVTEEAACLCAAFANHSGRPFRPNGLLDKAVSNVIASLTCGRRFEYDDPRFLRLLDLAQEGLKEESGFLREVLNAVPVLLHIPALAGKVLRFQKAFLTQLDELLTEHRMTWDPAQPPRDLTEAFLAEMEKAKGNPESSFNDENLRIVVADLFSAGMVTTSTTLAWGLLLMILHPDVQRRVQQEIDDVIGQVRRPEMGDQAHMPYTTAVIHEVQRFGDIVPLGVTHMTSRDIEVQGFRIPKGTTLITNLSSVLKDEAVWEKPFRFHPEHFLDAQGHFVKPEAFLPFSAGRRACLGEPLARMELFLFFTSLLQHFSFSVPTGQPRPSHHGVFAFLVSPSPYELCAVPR

[9] = inhibitors of intracellular T. cruzi replication, confirmation, NIH3T3 host cells, beta-gal luminescence (AID 2044); format: functional, cell-based;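 also: intracellular parasites grown in NIH/3T3 mouse fibroblasts as host cells; luminescent beta-galactosidase reporter signal from transgenic T. cruzi replicating inside host cells; inhibitors lower the luminescence signal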
[10] = cytotoxicity toward NIH3T3 fibroblasts, dose response, counter-screen, cell-based, ATP luminescence, mouse fibroblasts (AID 2010); format: functional;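 also: cells exposed to compound for about 90 hours before reading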
[11] = NIH-3T3 fibroblast cytotoxicity, dose response, cytotoxicity control, cell-based, fluorescence, Alamar Blue, secondary assay (AID 2327); format: functional;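 also: NIH-3T3 mouse fibroblasts cultured with fluconazole at 8 µg/mL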
[12] = target: T2, Cytochrome P450 1A2 (Homo sapiens, UniProt P05177)
T2 sequence (P05177 whole entry): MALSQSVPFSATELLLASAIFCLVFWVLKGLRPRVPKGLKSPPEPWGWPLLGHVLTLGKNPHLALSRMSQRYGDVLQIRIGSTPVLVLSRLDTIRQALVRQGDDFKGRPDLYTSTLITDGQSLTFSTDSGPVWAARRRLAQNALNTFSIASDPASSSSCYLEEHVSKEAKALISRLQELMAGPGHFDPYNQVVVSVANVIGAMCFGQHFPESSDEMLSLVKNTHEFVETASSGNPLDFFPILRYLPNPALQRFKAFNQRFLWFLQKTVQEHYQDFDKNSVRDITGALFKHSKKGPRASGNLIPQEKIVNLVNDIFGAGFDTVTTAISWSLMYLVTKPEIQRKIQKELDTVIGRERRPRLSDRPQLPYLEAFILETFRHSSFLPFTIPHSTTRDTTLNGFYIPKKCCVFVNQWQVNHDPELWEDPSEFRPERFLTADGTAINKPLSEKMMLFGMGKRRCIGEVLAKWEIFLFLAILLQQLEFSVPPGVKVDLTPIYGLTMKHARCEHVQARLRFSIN

[13] = Luminescence Cell-Based Dose Retest to Confirm Inhibitors of Cancer Stem Cells. [Related pubchem assays (depositor defined):AID2717, AID2721]; format: functional; details: Homo sapiens

Sequence of Cytochrome P450 2C19 (P33261 whole entry): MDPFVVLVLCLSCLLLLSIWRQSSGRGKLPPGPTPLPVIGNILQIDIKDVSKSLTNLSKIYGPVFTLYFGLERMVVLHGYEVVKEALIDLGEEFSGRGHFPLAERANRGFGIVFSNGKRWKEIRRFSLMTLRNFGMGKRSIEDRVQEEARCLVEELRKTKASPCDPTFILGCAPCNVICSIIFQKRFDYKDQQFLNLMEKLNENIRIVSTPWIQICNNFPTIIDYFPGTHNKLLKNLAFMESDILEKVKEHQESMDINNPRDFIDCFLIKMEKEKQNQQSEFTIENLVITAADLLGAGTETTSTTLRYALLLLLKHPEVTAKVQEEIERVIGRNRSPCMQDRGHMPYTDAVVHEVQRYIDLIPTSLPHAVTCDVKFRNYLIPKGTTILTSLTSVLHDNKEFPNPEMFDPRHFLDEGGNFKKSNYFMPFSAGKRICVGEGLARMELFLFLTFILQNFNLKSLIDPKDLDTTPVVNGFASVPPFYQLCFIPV

CSc1nnc(-c2cc3c(-c4ccccc4)nn(C)c3s2)n1C
AC50 [1]: 22.4 µM (inconclusive)
AC50 [2]: 31.6 µM (inconclusive)
AC50 [3]: 3.55 µM (inconclusive)

COCCCNC(=O)[C@H]1N2C(=O)c3ccccc3C2SC1(C)C (some centres not stated)
EC50 [4]: > 53 µM (inactive)

CCOC(=O)c1sc(SC)c2c1CCC/C2=N/OC
AC50 [5]: > 260 µM (inactive)

Cn1c(=O)c(-c2ccccc2)nc2cnc(OCc3ccccc3)nc21
AC50 [1]: 39.8 µM (inconclusive)
AC50 [2]: 39.8 µM (inconclusive)
AC50 [3]: 20 µM (inconclusive)

O=C(CSc1cn(Cc2ccccc2)c2ccccc12)Nc1nccs1
EC50 [6]: 0.244 µM (active)
EC50 [7]: 5.48 µM (active)

O=C1CC[C@](CCc2nc3ccccc3[nH]2)(c2ccccc2)C(=O)N1
AC50 [8]: 2.51 µM (inconclusive)

COc1ccc(C(=O)N2CCC3(CCCN(Cc4ccncc4)C3)CC2)cc1
AC50 [8]: 12.6 µM (inconclusive)

COc1ccc(NC(=O)C2(c3ccc(NC(=O)c4ccc(OC(C)=O)cc4)cc3)CCCC2)cc1
AC50 [3]: 1.26 µM (inconclusive)

N#Cc1c(-c2ccc(F)cc2)cc(C2CC2)nc1SCC(=O)c1cccs1
EC50 [4]: > 53 µM (inactive)

CC(C)N1CCN(c2ccncc2S(=O)(=O)N2CCCCC2)CC1
AC50 [8]: 3.98 µM (inconclusive)

COc1ccc2[nH]c(/C(C#N)=C\c3ccc(Oc4ccc([N+](=O)[O-])cn4)cc3)nc2c1
AC50 [5]: 3.64 µM (active)

COc1ccc(C(=O)C/C(=C\C(=O)c2ccc(C)cc2)c2ccccc2)cc1
EC50 [9]: 1.93 µM (active)
EC50 [10]: > 60 µM (not active)
AC50 [5]: 7 µM (active)

CC(=O)N1CCC2(CC1)CCN(c1ccncc1)CC2
AC50 [3]: 25.1 µM (inconclusive)

COc1cccc([C@H]2Oc3ccc(OC)cc3/C(=N\OC[C@@H](O)[C@@H]3O[C@@H]4OC(C)(C)O[C@@H]4[C@H]3O)[C@@H]2O)c1
AC50 [8]: 3.16 µM (inconclusive)

COc1ccc(-c2cc(-c3c(O)c(OC)c4occc4c3OC)[nH]n2)cc1
EC50 [11]: 25.8 µM (active)

CC(=O)Nc1ccc(C2=NN(CC#N)C(=O)SC2)cc1
AC50 [12]: 15.8 µM (inconclusive)
AC50 [3]: 8.91 µM (inconclusive)

CC(=O)c1ccc(NC(S)=NCCc2cccc(Cl)c2)cc1
EC50 [6]: 2.64 µM (active)
EC50 [7]: > 120 µM (not active)

CC(=O)Nc1ccc(Sc2ncccc2C(=O)Nc2ccc(F)cc2)cn1
AC50 [1]: 39.8 µM (inconclusive)
EC50 [4]: 1.97 µM (active)
AC50 [2]: 15.8 µM (inconclusive)
AC50 [3]: 10 µM (inconclusive)

COc1ccc(Oc2nnc(C)c3ccccc23)cc1
EC50 [6]: 2.76 µM (active)
EC50 [7]: 5.97 µM (active)

CCN(CC)CCOC(=O)c1c(C)n(C)c2ccc(OC)cc12
AC50 [1]: 39.8 µM (inconclusive)
AC50 [8]: 28.2 µM (inconclusive)

Cc1cccc(NC(=O)C2CCN(S(=O)(=O)c3cccc4nsnc34)CC2)n1
AC50 [8]: 14.1 µM (inconclusive)
AC50 [12]: 0.0794 µM (inconclusive)
AC50 [3]: 14.1 µM (inconclusive)

Cc1cccc(NC(=N)Nc2nc(C)cc(C)n2)c1
EC50 [4]: 10.7 µM (active)

Cc1cccc(CNc2nc(-c3cccc(NS(C)(=O)=O)c3)nc3ccccc23)c1
AC50 [3]: 0.501 µM (inconclusive)

CC1=NN(C(=O)c2ccncc2)C(=O)[C@@H]1/N=N\c1ccc2ccccc2c1
AC50 [1]: 3.98 µM (inconclusive)
AC50 [8]: 3.16 µM (inconclusive)
AC50 [2]: 3.98 µM (inconclusive)

Cc1ccc(Nc2nnc(-c3ccc4c(c3)OCO4)o2)c(C)c1
AC50 [3]: 7.94 µM (inconclusive)

CC(C)(C)c1ccc(C(=O)Nc2ccc(N3CCOCC3)cc2)cc1
AC50 [13]: 4.04 µM (active)

Cn1c2c(c(=O)n(C)c1=O)C1(C(=O)Nc3ccccc31)C(C#N)=C(N)O2 (configuration not stated)
AC50 [8]: 14.1 µM (inconclusive)
AC50 [12]: 25.1 µM (inconclusive)
AC50 [2]: 22.4 µM (inconclusive)

FC(F)(F)c1ccccc1-c1nc(N2CCOCC2)c2ccccc2n1
AC50 [8]: 25.1 µM (inconclusive)
AC50 [2]: 12.6 µM (inconclusive)

COc1ccc(N2CCN(C(S)=Nc3cccc(C)c3)CC2)cc1
AC50 [2]: 2.24 µM (inconclusive)
AC50 [3]: 0.00562 µM (inconclusive)

O=C(CNS(=O)(=O)c1cccs1)N1CCC2(CC1)OCCO2
AC50 [3]: 39.8 µM (inconclusive)

O=C(OCc1cccc(F)c1)c1ccc2c(c1)-c1ccccc1C2=O
AC50 [8]: 0.355 µM (inconclusive)
AC50 [3]: 10 µM (inconclusive)

O=C(c1ccncc1)N1CCC2(CCN(Cc3ccncc3)CC2)CC1
AC50 [8]: 25.1 µM (inconclusive)
AC50 [2]: 15.8 µM (inconclusive)
AC50 [3]: 20 µM (inconclusive)

CCC(=O)NCCNC(=O)c1c(SC)nsc1SC
AC50 [1]: 39.8 µM (inconclusive)
AC50 [12]: 3.16 µM (inconclusive)
AC50 [3]: 12.6 µM (inconclusive)

Cc1ccnc(N(C(=O)Nc2ccccc2)C2=NCC(C)(C)S2)c1
EC50 [6]: 0.709 µM (active)
EC50 [7]: > 120 µM (not active)

COC(=O)C1(CC(C)C)C=C2C(=C(C(C)C)C(=O)C2C)CN1 (configuration not stated)
AC50 [1]: 25.1 µM (inconclusive)
AC50 [8]: 25.1 µM (inconclusive)
AC50 [12]: 15.8 µM (inconclusive)
AC50 [2]: 20 µM (inconclusive)

O=C(NCc1ccccc1)C1=C[C@H](c2csc3ccccc23)C[C@H](OCCCCO)O1
AC50 [5]: 5.81 µM (active)

COc1ccc(O[C@H]2C=C[C@@H](c3ccccc3)O[C@H]2COC(=O)CC/C(C)=N\O[C@@H](C)CN2CCCc3nc(C)c(C)cc32)cc1
AC50 [3]: 3.98 µM (inconclusive)

O=c1c(Oc2ccccc2Br)c(C(F)(F)F)oc2c(CN3CCCC3)c(O)ccc12
AC50 [1]: 39.8 µM (inconclusive)
AC50 [8]: 17.8 µM (inconclusive)
AC50 [12]: 17.8 µM (inconclusive)

COc1ccc([N+](=O)[O-])cc1NC1C2CC3CC(C2)CC1C3 (configuration not stated)
AC50 [2]: 11.2 µM (inconclusive)
AC50 [3]: 22.4 µM (inconclusive)

Cc1ccc(S(=O)(=O)N/N=C/c2ccc(OC3CSC3)cc2)cc1
AC50 [1]: 4.47 µM (inconclusive)
EC50 [4]: 5.51 µM (active)

CSc1nc(C)cc(OCC(=O)N/N=C/c2ccccc2O)n1
AC50 [13]: 3.38 µM (active)

O=C(O)c1ccc2c(c1)C(=O)N(C(Cc1ccc(O)cc1)C(=O)O)C2=O (configuration not stated)
AC50 [8]: 0.01 µM (inconclusive)
